Results on 17 compounds are retold here after ChEMBL document CHEMBL4138254 (ACS Med Chem Lett, 2017).

Molecules are shown by their SMILES. In brackets after ≈: the same amount, converted by molar mass.

Data set [1] addresses T1, Autotaxin (Rattus norvegicus, UniProt Q64610). Put plainly: Inhibition of ATX in rat whole blood using LPA 17:0 as substrate after 1 hr by LC-MS/MS analysis.
Data set [2] is described as follows: in vitro. The following applies: rat, liver microsomes.
Description: Clearance in rat liver microsomes at 1 uM in presence of NADPH by LC-MS/MS analysis relative to hepatic blood flow
A short description of data set [3]: physchem. The following applies: pH 6.8 buffer solution.
Description: Aqueous solubility of the compound in pH 6.8 buffer solution after 24 hrs by LC-UV analysis
Data set [4] can be described thus: physchem. As to conditions: pH 2.2 buffer solution.
Description: Aqueous solubility of the compound in pH 2.2 buffer solution after 24 hrs by LC-UV analysis
In data set [5] the target is Voltage-gated inwardly rectifying potassium channel KCNH2 (Homo sapiens, UniProt Q12809).
Description: Inhibition of human ERG expressed in HEK293 cells by patch clamp assay
Data set [6] can be described thus: in vitro. The following applies: human, Caco-2.
Description: Apparent permeability across apical to basolateral side in human Caco2 cells at 10 uM measured up to 90 mins
The nature of data set [7]: physchem. As to conditions: pH 4.5 buffer solution.
Description: Aqueous solubility of the compound in pH 4.5 buffer solution after 24 hrs by LC-UV analysis
Data set [8] has as its target T1, Autotaxin. Put plainly: Inhibition of recombinant rat ATX using LPC 18:1 as substrate after 2 hrs by rapidfire/MS-based analysis.
A short description of data set [9]: in vitro. As to conditions: human, liver microsomes. Background: Microsomes from liver hold many membrane-bound enzymes, among them those of drug oxidation.
Description: Clearance in human liver microsomes at 1 uM in presence of NADPH by LC-MS/MS analysis relative to hepatic blood flow

Voltage-gated inwardly rectifying potassium channel KCNH2, sequence (Q12809 whole entry): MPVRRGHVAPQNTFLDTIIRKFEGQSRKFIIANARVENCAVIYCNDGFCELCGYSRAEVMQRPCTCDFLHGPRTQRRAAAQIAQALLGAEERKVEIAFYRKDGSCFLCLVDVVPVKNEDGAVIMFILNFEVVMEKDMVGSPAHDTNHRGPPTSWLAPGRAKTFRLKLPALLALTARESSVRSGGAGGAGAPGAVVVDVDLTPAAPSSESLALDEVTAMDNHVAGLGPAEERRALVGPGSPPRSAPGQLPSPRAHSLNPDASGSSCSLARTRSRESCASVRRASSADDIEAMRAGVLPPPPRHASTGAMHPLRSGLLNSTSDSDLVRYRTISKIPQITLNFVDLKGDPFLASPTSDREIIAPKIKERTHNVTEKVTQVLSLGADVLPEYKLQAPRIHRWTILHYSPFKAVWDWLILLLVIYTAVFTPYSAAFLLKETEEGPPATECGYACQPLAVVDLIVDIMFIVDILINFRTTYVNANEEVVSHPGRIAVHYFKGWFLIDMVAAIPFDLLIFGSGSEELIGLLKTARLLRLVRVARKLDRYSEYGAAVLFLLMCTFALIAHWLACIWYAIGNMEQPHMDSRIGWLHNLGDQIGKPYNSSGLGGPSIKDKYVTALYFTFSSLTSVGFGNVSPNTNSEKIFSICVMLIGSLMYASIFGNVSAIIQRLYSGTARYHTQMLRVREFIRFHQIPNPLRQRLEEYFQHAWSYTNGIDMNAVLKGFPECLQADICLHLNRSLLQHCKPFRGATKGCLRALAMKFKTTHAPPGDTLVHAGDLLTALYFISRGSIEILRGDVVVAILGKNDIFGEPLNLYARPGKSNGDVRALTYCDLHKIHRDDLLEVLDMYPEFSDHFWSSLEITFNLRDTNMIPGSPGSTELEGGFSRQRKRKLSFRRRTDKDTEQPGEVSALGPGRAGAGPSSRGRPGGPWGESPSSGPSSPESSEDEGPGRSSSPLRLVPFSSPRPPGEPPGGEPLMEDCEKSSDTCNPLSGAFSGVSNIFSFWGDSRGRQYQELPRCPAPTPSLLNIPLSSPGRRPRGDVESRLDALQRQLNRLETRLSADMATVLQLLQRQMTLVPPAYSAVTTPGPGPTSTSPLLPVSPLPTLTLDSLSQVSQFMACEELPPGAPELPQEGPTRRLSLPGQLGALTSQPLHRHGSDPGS

In general, IC50 refers to the concentration that gives 50% inhibition. A word on the solubility: it is the dissolved amount per volume that the medium holds. Higher therefore signals much dissolved substance. For orientation: Papp A→B means how fast a substance crosses the layer from the apical side. High values mean fast passage, low ones slow passage. In the case of `O=C(NC[C@@H]1[C@H]2CN(C(=O)C3CC3c3cc(Cl)cc(Cl)c3)C[C@@H]12)c1ccc2[nH]c(=O)oc2c1` (some centres undefined), the half-inhibitory concentration (IC50) came out at 2400 nM against Autotaxin [1], 4700 nM in data set [5] and 4.8 nM at Autotaxin [8]. In the data set “in vitro [2]”, the hepatic extraction ratio at 1 µM was above 0.22. For the same compound, the solubility at 24 h in the data set “physchem [3]”, in “physchem [4]” and in the data set “physchem [7]” was below 1 µg/mL each time. Besides, the apical-to-basolateral permeability (Papp A→B) at 1.5 h, 10 µM in “in vitro [6]” amounted to 64 ×10⁻⁶ cm/s.
`N#Cc1cc(COC(=O)N2C[C@@H]3[C@@H](CNC(=O)c4ccc5[nH]c(=O)oc5c4)[C@@H]3C2)cc(OC(F)(F)F)c1`: the IC50 against Autotaxin [1] is 94 nM; in data set [5], above 10000 nM; on Autotaxin [8], 1.9 nM. Moreover, the hepatic extraction ratio at 1 µM was 0.56 in “in vitro [2]” and 0.48 in the data set “in vitro [9]”. The solubility at 24 h in “physchem [3]”, in “physchem [4]” and in “physchem [7]” was below 1 µg/mL each time. In “in vitro [6]”, the Papp A→B at 1.5 h, 10 µM was 44 ×10⁻⁶ cm/s.
Consider `CC(C)(C)OC(=O)N1CCCC(COC(=O)N2C[C@@H]3[C@@H](CNC(=O)c4ccc5[nH]c(=O)oc5c4)[C@@H]3C2)C1` (some centres undefined), for which the concentration for half-maximal inhibition (IC50) against Autotaxin [1] turned out to be 6.9 nM; at Autotaxin [8], 49 nM.
Take `N#Cc1cc(COC(=O)N2C[C@@H]3[C@@H](CNC(=O)N4CCc5c(O)noc5C4)[C@@H]3C2)cc(C(=O)OC(F)(F)F)c1`: the figures for the hepatic extraction ratio at 1 µM in “in vitro [2]” and in “in vitro [9]” were below 0.22 and below 0.23, respectively. For the same compound, the figures for the solubility at 24 h in the data set “physchem [3]”, in “physchem [4]” and in the data set “physchem [7]” were above 113 µg/mL, below 1 µg/mL and below 1 µg/mL, respectively. For the same compound, the figures for the 50% inhibitory concentration (IC50) (in [5]; at Autotaxin [8]) were above 10000 nM and 10 nM, respectively.
For `O=C(NC[C@@H]1[C@H]2CN(C(=O)OCc3cc(C(F)(F)F)cc(C(F)(F)F)c3)C[C@@H]12)c1ccc2[nH]c(=O)oc2c1`, the 50% inhibitory concentration (IC50) came out at 4.5 nM on Autotaxin [1] and 2.3 nM at Autotaxin [8]. Besides, the solubility at 24 h in the data set “physchem [3]”, in the data set “physchem [4]” and in the data set “physchem [7]” was below 1 µg/mL each time. Also, in “in vitro [6]”, the Papp A→B at 1.5 h, 10 µM worked out at 108 ×10⁻⁶ cm/s.
For `N#Cc1cc(COC(=O)N2C[C@@H]3[C@@H](CNC(=O)NCCCc4cnn[nH]4)[C@@H]3C2)cc(C(=O)OC(F)(F)F)c1`, the IC50 was found to be 65 nM against Autotaxin [1] and 5.5 nM on Autotaxin [8].
In the case of `O=C(NC[C@@H]1[C@H]2CN(C(=O)N3CCc4c(Cl)cc(Cl)cc4C3)C[C@@H]12)c1ccc2[nH]c(=O)oc2c1`, the hepatic extraction ratio at 1 µM in “in vitro [2]” was determined as 0.53. The solubility at 24 h in the data set “physchem [3]”, in “physchem [4]” and in the data set “physchem [7]” was below 1 µg/mL throughout. Further, the apical-to-basolateral permeability (Papp A→B) at 1.5 h, 10 µM in “in vitro [6]” is 47 ×10⁻⁶ cm/s. The concentration for half-maximal inhibition (IC50) on Autotaxin [8] is 82.6 nM.
With `Cc1ccc(COC(=O)N2C[C@@H]3[C@@H](CNC(=O)c4ccc5[nH]c(=O)oc5c4)[C@@H]3C2)nc1`, the results for the IC50 (at Autotaxin [1]; in data set [5]; at Autotaxin [8]) were 1610 nM, above 10000 nM and 1530 nM, respectively. Moreover, the hepatic extraction ratio at 1 µM in “in vitro [2]” is below 0.22; in “in vitro [9]” it was 0.25. In addition, the values for the solubility at 24 h in “physchem [3]”, in the data set “physchem [4]” and in “physchem [7]” were 56 µg/mL (≈ 133 µM), above 92 µg/mL and 66 µg/mL (≈ 156 µM), respectively. Besides, in the data set “in vitro [6]”, the Papp A→B at 1.5 h, 10 µM came to 1 ×10⁻⁶ cm/s.
Regarding `Cc1cc(COC(=O)N2C[C@@H]3[C@@H](CNC(=O)c4ccc5[nH]c(=O)oc5c4)[C@@H]3C2)no1`, the values for the hepatic extraction ratio at 1 µM in “in vitro [2]” and in “in vitro [9]” were below 0.22 and below 0.23, respectively. Also, the solubility at 24 h is 63 µg/mL (≈ 153 µM) in “physchem [3]”, above 86 µg/mL in “physchem [4]” and above 93 µg/mL in “physchem [7]”. In addition, the IC50 in data set [5] was above 10000 nM; at Autotaxin [8] it was 1670 nM. This compound showed a Papp A→B at 1.5 h, 10 µM in “in vitro [6]” of 2 ×10⁻⁶ cm/s.
With `O=C(NC[C@@H]1[C@H]2CN(C(=O)/C=C/c3cc(Cl)cc(Cl)c3)C[C@@H]12)c1ccc2[nH]c(=O)oc2c1`, the results for the IC50 (against Autotaxin [1]; in data set [5]; on Autotaxin [8]) were 1900 nM, 4200 nM and 1.7 nM, respectively. Besides, the results for the hepatic extraction ratio at 1 µM in the data set “in vitro [2]” and in the data set “in vitro [9]” were above 0.22 and 0.25, respectively. Also, the solubility at 24 h in “physchem [3]”, in the data set “physchem [4]” and in “physchem [7]” was below 1 µg/mL in each case. This compound registered a Papp A→B at 1.5 h, 10 µM in “in vitro [6]” of 38 ×10⁻⁶ cm/s.
For the compound `O=C(NC[C@@H]1[C@H]2CN(C(=O)NCc3cc(Cl)cc(Cl)c3)C[C@@H]12)c1ccc2[nH]c(=O)oc2c1`, the results for the concentration for half-maximal inhibition (IC50) (against Autotaxin [1]; in [5]; at Autotaxin [8]) were 77 nM, above 10000 nM and 13.9 nM, respectively. Further, the hepatic extraction ratio at 1 µM in the data set “in vitro [2]” is 0.35; in the data set “in vitro [9]” it was 0.36. In addition, the solubility at 24 h in the data set “physchem [3]”, in the data set “physchem [4]” and in the data set “physchem [7]” was below 1 µg/mL throughout. Further, the Papp A→B at 1.5 h, 10 µM in the data set “in vitro [6]” was determined as 2 ×10⁻⁶ cm/s.
Turning to `O=C(NC[C@@H]1[C@H]2CN(C(=O)OCc3cc(Cl)cc(Cl)c3)C[C@@H]12)c1ccc2[nH]c(=O)oc2c1`, the concentration for half-maximal inhibition (IC50) was 56 nM against Autotaxin [1], above 10000 nM in data set [5] and 3.1 nM at Autotaxin [8]. In addition, the hepatic extraction ratio at 1 µM in the data set “in vitro [2]” came to 0.64; in “in vitro [9]” it was 0.41. Further, the solubility at 24 h in the data set “physchem [3]”, in the data set “physchem [4]” and in “physchem [7]” was below 1 µg/mL each time. Besides, the apical-to-basolateral permeability (Papp A→B) at 1.5 h, 10 µM in “in vitro [6]” stood at 137 ×10⁻⁶ cm/s.
With `CC(OC(=O)N1C[C@@H]2[C@@H](CNC(=O)c3ccc4[nH]c(=O)oc4c3)[C@@H]2C1)c1cc(Cl)cc(Cl)c1` (some centres undefined), the IC50 at Autotaxin [1] amounted to 208 nM; at Autotaxin [8] it was 66.9 nM. In addition, the solubility at 24 h in “physchem [3]”, in the data set “physchem [4]” and in “physchem [7]” was below 1 µg/mL each time. The compound also showed a Papp A→B at 1.5 h, 10 µM in the data set “in vitro [6]” of 118 ×10⁻⁶ cm/s.
As for `N#Cc1cc(COC(=O)N2C[C@@H]3[C@@H](CNC(=O)c4ccc5[nH]nnc5c4)[C@@H]3C2)cc(C(=O)OC(F)(F)F)c1`, the figures for the IC50 (against Autotaxin [1]; in [5]; at Autotaxin [8]) were 18 nM, above 10000 nM and 1.5 nM, respectively. The hepatic extraction ratio at 1 µM was 0.28 in “in vitro [2]” and 0.29 in the data set “in vitro [9]”. The solubility at 24 h in the data set “physchem [3]”, in the data set “physchem [4]” and in the data set “physchem [7]” was below 1 µg/mL each time. Moreover, in “in vitro [6]”, the Papp A→B at 1.5 h, 10 µM came to 8 ×10⁻⁶ cm/s.
As to `O=C(NC[C@@H]1[C@H]2CN(C(=O)CCc3cc(Cl)cc(Cl)c3)C[C@@H]12)c1ccc2[nH]c(=O)oc2c1`, the IC50 against Autotaxin [1] was determined as 7 nM; in data set [5] it was 8100 nM; on Autotaxin [8] it was 2.3 nM. The results for the hepatic extraction ratio at 1 µM in the data set “in vitro [2]” and in “in vitro [9]” were 0.88 and 0.94, respectively. For the same compound, the solubility at 24 h in “physchem [3]”, in the data set “physchem [4]” and in “physchem [7]” was below 1 µg/mL each time. Also, in “in vitro [6]”, the Papp A→B at 1.5 h, 10 µM is 18 ×10⁻⁶ cm/s.
Consider `N#Cc1cc(COC(=O)N2C[C@@H]3[C@@H](CNC(=O)N4CCc5[nH]nnc5C4)[C@@H]3C2)cc(C(=O)OC(F)(F)F)c1`, for which the IC50 against Autotaxin [1] is 33 nM; in data set [5] it was above 10000 nM; at Autotaxin [8], 1.3 nM. In addition, the hepatic extraction ratio at 1 µM in the data set “in vitro [2]” amounted to 0.43; in the data set “in vitro [9]”, 0.44. The solubility at 24 h in “physchem [3]” was found to be 5 µg/mL (≈ 9.37 µM); in the data set “physchem [4]” it was 32 µg/mL (≈ 60 µM); in the data set “physchem [7]”, 26 µg/mL (≈ 48.7 µM). Further, the Papp A→B at 1.5 h, 10 µM in the data set “in vitro [6]” came to 7 ×10⁻⁶ cm/s.
Regarding `O=C(CCN1CCN(C(=O)OCc2cc(Cl)cc(Cl)c2)CC1)c1ccc2[nH]c(=O)oc2c1`, the IC50 against Autotaxin [1] is 307 nM; in data set [5] it was 480 nM.
